Source: patent US20230416653A1, “ANTIMICROBIAL CLEANING COMPOSITIONS CONTAINING POLYURETHANE SALTED WITH BIS-BIGUANIDE FREE BASE” (Lubrizol Advanced Materials, Inc., priority 2020, published 2023)

System: Aspergillus brasiliensis
Experiment: Antimicrobial activity on ceramic tiles, visual evaluation of fungal growth
Type: cell-based
Conditions: 10 = full fungal growth coverage, 0 = complete absence of fungal growth; tiles rinsed with 0.1 wt. % SLS; incubated 7 days at 25° C.
Protocol: A 2 wt. % aqueous dispersion of Polymer 1 salted with 2 wt. % chlorhexidine free base was assayed for antimicrobial activity on ceramic tiles. Control formulations containing Polymer 2 (no acid groups) 2 wt. % aqueous dispersion combined with 2 wt. % chlorhexidine gluconate, chlorhexidine (1 wt. % active material in sterilized deionized water) and benzalkonium chloride (1 wt. % active material in sterilized deionized water) were prepared for comparison. The tiles (Homebase Gloss Mini-Metro wall tiles measuring 7.5 cm×15 cm×0.6 cm thick) were sprayed with the dispersion of the salted Polymer 1 and the control formulations. The treated tiles were dried overnight in a biological control cabinet (Nuaire model no. NU 4005) at 20° C. and 45% RH. The dried tiles were removed from the biological control cabinet and each tile was rinsed with 400 ml of a sterile solution of 0.1 wt. % sodium laurel sulfate in deionized water. A spore suspension of Aspergillus brasiliensis cultured on malt extract agar was prepared in sterilized deionized water (concentration: 1×10^8 cfu/ml) and applied to each tile with a handheld spray bottle (nozzle set on spray position). The treated tiles were placed in the biological cabinet at 20° C. and 45% RH and dried for 30 mins. […] After incubating for 7 days the tiles were removed and visually evaluated for fugal growth.

Molecule	Fungal Coverage Rating (average of 10 treated tiles)
N=C(NCCCCCCNC(=N)NC(=N)Nc1ccc(Cl)cc1)NC(=N)Nc1ccc(Cl)cc1 [Control (chlorhexidine), chlorhexidine]	5
benzalkonium chloride [Control (benzalkonium chloride)]	6
